Data reported in patent US7390873B2, “Antimicrobial cationic peptides” (University of British Columbia, priority 1995, dated 2008).
Values after ≈ are worked out from the molar mass of the structure shown. Where two headings read alike, the source gives them in different places. Where a SMILES comes first, the peptide text is derived from it. Where no end group is shown, it is not given here. [ ]: non-standard residue; d: D form.

Tests used:
[1] = system: Staphylococcus epidermidis C621; format: cell-based; conditions: for MIC S. epidermidis: C621, 24 h
Protocol: (§1) Any of the art-known methods for measuring antimicrobial activity of peptides can be used in characterizing the peptides of the invention. In these examples, conventional methods were used to determine the minimal inhibitory concentration (MIC) of a peptide in a liquid medium (Amsterdam. Antibiotics in Laboratory Medicine, Williams and Wilkins, Baltimore (1991) 72-78). Briefly, overnight cultures of the test organisms (described below) were diluted to produce an inoculum containing approximately 10^4 to 10^5 organisms. The inoculum size was confirmed by counting the number of organisms on plates that were inoculated at the same time as the liquid cultures.
(§2) The concentration of peptide was measured by assaying for free amino groups using a dinitrophenylation assay, with polymyxin B serving as a standard. Doubling dilutions of peptide were performed (32 μg/ml-0.25 μg/ml) in 100 μl volumes in a 96-well mictrotiter plate, and all wells were subsequently inoculated with the diluted culture of the test organism. After 24 hours of incubation at 37° C., the assay was read. The MIC value is the concentration of peptide at which the growth of the test organism was reduced by 50%. The number of cells in the culture inoculum was calculated from the plate count after incubating the plate for 24 hours at 37° C. The medium used for cell culture and dilution in this assay was Luria broth (LB). Each peptide was tested three times against each organism, and the MIC values presented below are the mean values of the three experiments.

[2] = system: Pseudomonas aeruginosa K799; format: cell-based; conditions: for MIC P. aeruginosa: K799, 24 h
Protocol: as §1, §2

[3] = system: Staphylococcus aureus RN4220; format: cell-based; conditions: for MIC S. aureus: RN4220, 24 h
Protocol: as §1, §2

[4] = system: E. coli UB1005; format: cell-based; conditions: for MIC E. coli: UB1005, 24 h
Protocol: as §1, §2

[5] = system: Candida albicans C627; format: cell-based; conditions: for MIC C. albicans: C627, 24 h
[6] = system: human red blood cells; assay: Lysis of red blood cells; format: cell-based
Protocol: Freshly collected human blood was mixed with heparin and centrifuged to remove the buffy coat. The resulting erythrocytes were washed three times in 0.85% saline and stored at 4° C. Serial dilutions of the peptides in saline were prepared in round bottomed microtitre plates using 100 μl volumes. Red blood cells were diluted with saline to 1/25 of the packed volume of cells and 50 μl of red blood cells were added to each well. Plates were incubated while rocking at 37° C., and the concentration of peptide required for red blood cell lysis of more than 80% of cells (i.e., visible lysis) was determined at 4 and 24 hours (Table 7).

[7] = system: all of the organisms tested; assay: MIC assay, summary over the organisms tested; format: cell-based; conditions: range over organisms
Protocol: as §1
as §2, with “The medium used for cell culture and dilution in this assay was Luria broth (LB). Each peptide was tested three times against each organism, and the MIC values presented below are the mean values of the three experiments.” left out
MIC values also were determined for various derivatives of indolicidin, CP-11, and CP-13. […]

[8] = Mortality after injection of peptide in mice; format: in vivo; conditions: 200 μg peptide IP
Protocol: The ability of indolicidin and variants to protect against LPS-induced endotoxemia was assessed in vivo. Mice (8-10 weeks old) were injected intraperitoneally (IP) with 20 mg D-galactosamine (Dgal) to sensitive them to LPS according to the model of Galanos (Galanos, C., M. A., Freudenberg and W. Reutter, 1979, Galactosamine sensitization to the lethal effects of endotoxin. Proc. Natl. Acad. Sci. USA 76:5939), followed by 200 μg peptide in 100 μl. Immediately afterwards LPS (10 μg) in 100 μl was injected. The mice were observed 24 hours after injections and survivors noted. […] When Dgal and LPS were also injected, that 200 μg of indolicidin reduced mortality reduced at 24 hours from 100% in controls to 60%.

Compound | MIC S. epidermidis [1] [µg/mL] | MIC P. aeruginosa [2] [µg/mL] | MIC S. aureus [3] [µg/mL] | MIC E. coli [4] [µg/mL] | MIC C. albicans [5] [µg/mL] | also measured
ILPWKKWPWWRWRR [CP-3R] | – | – | – | – | – | MIC S. epidermidis C621 [1]: 4 µg/mL; MIC P. aeruginosa K799 [2]: 8 µg/mL; MIC S. aureus RN4220 [3]: 8 µg/mL; MIC E.coli UB1005 [4]: 8 µg/mL; MIC C. albicans C627 [5]: > 32 µg/mL; Partial killing observed in dilutions down to ([5]; purified recombinant peptide, C. albicans C627): 8 µg/mL
CC[C@H](C)[C@H](N)C(=O)N[C@@H](CC(C)C)C(=O)N[C@@H](CCCCN)C(=O)N[C@@H](CCCCN)C(=O)N[C@@H](Cc1c[nH]c2ccccc12)C(=O)N1CCC[C@H]1C(=O)N[C@@H](Cc1c[nH]c2ccccc12)C(=O)N[C@@H](Cc1c[nH]c2ccccc12)C(=O)N1CCC[C@H]1C(=O)N[C@@H](Cc1c[nH]c2ccccc12)C(=O)N[C@@H](CCCNC(=N)N)C(=O)N[C@@H](CCCNC(=N)N)C(=O)N[C@@H](CCCCN)C(=O)OC [CP-11C] (H-ILKKWPWWPWRRK-OMe) | 1 (≈ 0.528 µM) | 8 (≈ 4.22 µM) | 8 (≈ 4.22 µM) | 2 (≈ 1.06 µM) | 8 (≈ 4.22 µM) | Lowest concentration causing lysis, 4 hours [6]: >128 µg/mL; Lowest concentration causing lysis, 24 hours [6]: 64 µg/mL; MIC values for all of the organisms tested [7]: 1 to 8 µg/mL
FFKKFPFFPFRRK [CP-24] | – | 32 | 8 | 8 | – | –
ILKKWPWWPWRRK-NH2 [CP-11N] | 8 | – | >32 | 1 | – | –
ILKKWPWWPWKWKK [CP-13] | 4 | >32 | >32 | 8 | >32 | Lowest concentration causing lysis, 4 hours [6]: >128 µg/mL; Lowest concentration causing lysis, 24 hours [6]: 128 µg/mL
CC[C@H](C)[C@H](N)C(=O)N[C@@H](CC(C)C)C(=O)N1CCC[C@H]1C(=O)N[C@@H](Cc1c[nH]c2ccccc12)C(=O)N[C@@H](CCCCN)C(=O)N[C@@H](Cc1c[nH]c2ccccc12)C(=O)N1CCC[C@H]1C(=O)N[C@@H](Cc1c[nH]c2ccccc12)C(=O)N[C@@H](Cc1c[nH]c2ccccc12)C(=O)N1CCC[C@H]1C(=O)N[C@@H](Cc1c[nH]c2ccccc12)C(=O)N[C@@H](CCCNC(=N)N)C(=O)N[C@@H](CCCNC(=N)N)C(=O)O [Indolicidin-R, reference compound] | – | – | – | – | – | MIC S. epidermidis C621 [1]: 16 µg/mL (≈ 8.39 µM); MIC P. aeruginosa K799 [2]: >32 µg/mL; MIC S. aureus RN4220 [3]: 16 µg/mL (≈ 8.39 µM); MIC E.coli UB1005 [4]: 32 µg/mL (≈ 16.8 µM); MIC C. albicans C627 [5]: >32 µg/mL
CC[C@@H](C)[C@@H](N)C(=O)N[C@@H](CC(C)C)C(=O)N[C@@H](CCCCN)C(=O)N[C@@H](CCCCN)C(=O)N[C@@H](Cc1c[nH]c2ccccc12)C(=O)N1CCC[C@H]1C(=O)N[C@@H](Cc1c[nH]c2ccccc12)C(=O)N[C@@H](Cc1c[nH]c2ccccc12)C(=O)N1CCC[C@H]1C(=O)N[C@@H](Cc1c[nH]c2ccccc12)C(=O)N[C@@H](CCCNC(=N)N)C(=O)N[C@@H](CCCNC(=N)N)C(=O)N[C@@H](CCCCN)C(=O)O [CP-11D] (H-[dI]LKKWPWWPWRRK-OH) | 2 (≈ 1.06 µM) | 4 (≈ 2.13 µM) | 4 (≈ 2.13 µM) | 4 (≈ 2.13 µM) | 8 (≈ 4.25 µM) | Mortality after injection of peptide [8]: did not cause mortality
CC[C@@H](C)[C@@H](N)C(=O)N[C@@H](CC(C)C)C(=O)N1CCC[C@H]1C(=O)N[C@@H](Cc1c[nH]c2ccccc12)C(=O)N[C@@H](CCCCN)C(=O)N[C@@H](Cc1c[nH]c2ccccc12)C(=O)N1CCC[C@H]1C(=O)N[C@@H](Cc1c[nH]c2ccccc12)C(=O)N[C@@H](Cc1c[nH]c2ccccc12)C(=O)N1CCC[C@H]1C(=O)N[C@@H](Cc1c[nH]c2ccccc12)C(=O)N[C@@H](CCCNC(=N)N)C(=O)N[C@@H](CCCNC(=N)N)C(=O)OC [Indolicidin-DC] | 2 (≈ 1.04 µM) | >32 | 8 (≈ 4.16 µM) | 4 (≈ 2.08 µM) | >32 | –
CC[C@@H](C)[C@@H](N)C(=O)N[C@@H](CC(C)C)C(=O)N[C@@H](CCCCN)C(=O)N[C@@H](CCCCN)C(=O)N[C@@H](Cc1c[nH]c2ccccc12)C(=O)N1CCC[C@H]1C(=O)N[C@@H](Cc1c[nH]c2ccccc12)C(=O)N[C@@H](Cc1c[nH]c2ccccc12)C(=O)N1CCC[C@H]1C(=O)N[C@@H](Cc1c[nH]c2ccccc12)C(=O)N[C@@H](CCCNC(=N)N)C(=O)N[C@@H](CCCNC(=N)N)C(=O)N[C@@H](CCCCN)C(=O)OC [CP-11DC] (H-[dI]LKKWPWWPWRRK-OMe; N-terminus assumed) | 2 (≈ 1.06 µM) | 4 (≈ 2.11 µM) | 4 (≈ 2.11 µM) | 4 (≈ 2.11 µM) | 8 (≈ 4.22 µM) | –
CC[C@@H](C)[C@@H](N)C(=O)N[C@@H](CC(C)C)C(=O)N1CCC[C@H]1C(=O)N[C@@H](Cc1c[nH]c2ccccc12)C(=O)N[C@@H](CCCCN)C(=O)N[C@@H](Cc1c[nH]c2ccccc12)C(=O)N1CCC[C@H]1C(=O)N[C@@H](Cc1c[nH]c2ccccc12)C(=O)N[C@@H](Cc1c[nH]c2ccccc12)C(=O)N1CCC[C@H]1C(=O)N[C@@H](Cc1c[nH]c2ccccc12)C(=O)N[C@@H](CCCNC(=N)N)C(=O)N[C@@H](CCCNC(=N)N)C(=O)O [Indolicidin-D] | 2 (≈ 1.05 µM) | >32 | 4 (≈ 2.1 µM) | 8 (≈ 4.19 µM) | >32 | Mortality after injection of peptide [8]: did not cause mortality
CC[C@H](C)[C@H](N)C(=O)N[C@@H](CC(C)C)C(=O)N1CCC[C@H]1C(=O)N[C@@H](Cc1c[nH]c2ccccc12)C(=O)N[C@@H](CCCCN)C(=O)N[C@@H](Cc1c[nH]c2ccccc12)C(=O)N1CCC[C@H]1C(=O)N[C@@H](Cc1c[nH]c2ccccc12)C(=O)N[C@@H](Cc1c[nH]c2ccccc12)C(=O)N1CCC[C@H]1C(=O)N[C@@H](Cc1c[nH]c2ccccc12)C(=O)N[C@@H](CCCNC(=N)N)C(=O)N[C@@H](CCCNC(=N)N)C(=O)OC [Indolicidin-C] | 1 (≈ 0.52 µM) | >32 | 4 (≈ 2.08 µM) | 4 (≈ 2.08 µM) | >32 | Lowest concentration causing lysis, 4 hours ([6]; lysis of more than 80% of cells (visible lysis), 37° C., 4 hours): 32 µg/mL; Lowest concentration causing lysis, 24 hours ([6]; lysis of more than 80% of cells (visible lysis), 37° C., 24 hours): 32 µg/mL
ILPWKWPWYVRR [CP-IA] | >32 | >32 | >32 | >32 | >32 | –
